Data: ChEMBL document CHEMBL1201862, “PubChem BioAssay data set” (2004)
Activity calls are given as the source filed them.

Key:
[1] = target: T1, Heat shock factor protein 1 (Mus musculus, UniProt P38532); assay: enhancement of HSF1-driven luciferase signal – cell-based, NIH3T3, luminescence, dose retest, confirmation (AID 435004); type: functional;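 further: stress induced by proteasome inhibitor MG132 added 30 min after compound; luciferase reporter driven by HSF1 response element in NIH3T3 cells; actives raise luminescence as potentiators of the MG132 stress response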
T1 sequence (P38532 whole entry): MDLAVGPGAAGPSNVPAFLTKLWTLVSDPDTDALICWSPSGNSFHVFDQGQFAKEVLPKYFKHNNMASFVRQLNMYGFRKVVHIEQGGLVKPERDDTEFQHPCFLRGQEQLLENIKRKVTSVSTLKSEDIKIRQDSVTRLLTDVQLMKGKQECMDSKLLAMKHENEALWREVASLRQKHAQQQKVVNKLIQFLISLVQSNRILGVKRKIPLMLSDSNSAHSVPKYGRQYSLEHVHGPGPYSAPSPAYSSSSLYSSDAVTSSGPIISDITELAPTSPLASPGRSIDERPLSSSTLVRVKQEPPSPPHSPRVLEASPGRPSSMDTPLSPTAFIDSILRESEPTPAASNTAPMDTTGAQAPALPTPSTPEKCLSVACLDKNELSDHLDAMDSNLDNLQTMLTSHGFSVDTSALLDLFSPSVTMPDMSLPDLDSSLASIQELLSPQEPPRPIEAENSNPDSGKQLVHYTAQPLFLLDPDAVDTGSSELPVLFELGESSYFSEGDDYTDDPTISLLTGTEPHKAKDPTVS

[2] = Intein inhibitors as potential Tuberculosis drugs, a cytotoxicity screen. [Related pubchem assays (depositor defined):AID2221, AID2223, AID434968, AID435010, AID449749, AID449750, AID489010]; type: functional
[3] = target: T2, Replicative DNA helicase DnaB (Mycobacterium tuberculosis, UniProt P9WMR3); assay: DnaB intein splicing inhibitors, dose response, biochemical, cell-free fluorescence (AID 449749); type: functional
T2 sequence (P9WMR3 whole entry): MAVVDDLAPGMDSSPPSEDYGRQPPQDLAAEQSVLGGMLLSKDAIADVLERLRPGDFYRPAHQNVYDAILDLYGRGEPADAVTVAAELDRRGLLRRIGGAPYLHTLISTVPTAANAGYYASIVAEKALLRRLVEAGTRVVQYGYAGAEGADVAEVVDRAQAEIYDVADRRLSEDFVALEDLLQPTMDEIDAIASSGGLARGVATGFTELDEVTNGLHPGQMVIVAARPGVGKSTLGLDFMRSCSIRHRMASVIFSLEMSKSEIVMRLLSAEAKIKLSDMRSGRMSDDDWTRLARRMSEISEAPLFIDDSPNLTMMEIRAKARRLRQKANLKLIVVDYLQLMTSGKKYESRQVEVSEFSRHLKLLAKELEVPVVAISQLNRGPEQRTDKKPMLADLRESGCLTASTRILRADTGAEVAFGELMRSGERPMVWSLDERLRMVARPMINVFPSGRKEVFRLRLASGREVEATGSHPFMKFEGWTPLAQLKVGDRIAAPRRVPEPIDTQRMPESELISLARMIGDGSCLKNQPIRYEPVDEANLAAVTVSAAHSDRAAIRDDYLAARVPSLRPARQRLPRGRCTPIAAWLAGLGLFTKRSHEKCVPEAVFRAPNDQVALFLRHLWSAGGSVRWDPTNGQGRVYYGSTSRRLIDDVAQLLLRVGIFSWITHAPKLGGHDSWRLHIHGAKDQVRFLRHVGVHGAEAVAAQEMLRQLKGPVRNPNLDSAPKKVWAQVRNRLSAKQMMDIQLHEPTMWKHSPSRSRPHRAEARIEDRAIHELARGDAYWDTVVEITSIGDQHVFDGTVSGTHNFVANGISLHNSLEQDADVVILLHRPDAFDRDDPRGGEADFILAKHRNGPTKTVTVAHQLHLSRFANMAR

[4] = target: T3, Protein RecA (Mycobacterium tuberculosis, UniProt P9WHJ3); assay: Fluorescence Cell-Free Homogeneous Dose Retest to Identify Inhibitors of RecA-Intein Splicing Activity. [Related pubchem assays (depositor defined):AID2097, AID2223, AID489010, AID492950]; type: functional
T3 sequence (P9WHJ3 whole entry): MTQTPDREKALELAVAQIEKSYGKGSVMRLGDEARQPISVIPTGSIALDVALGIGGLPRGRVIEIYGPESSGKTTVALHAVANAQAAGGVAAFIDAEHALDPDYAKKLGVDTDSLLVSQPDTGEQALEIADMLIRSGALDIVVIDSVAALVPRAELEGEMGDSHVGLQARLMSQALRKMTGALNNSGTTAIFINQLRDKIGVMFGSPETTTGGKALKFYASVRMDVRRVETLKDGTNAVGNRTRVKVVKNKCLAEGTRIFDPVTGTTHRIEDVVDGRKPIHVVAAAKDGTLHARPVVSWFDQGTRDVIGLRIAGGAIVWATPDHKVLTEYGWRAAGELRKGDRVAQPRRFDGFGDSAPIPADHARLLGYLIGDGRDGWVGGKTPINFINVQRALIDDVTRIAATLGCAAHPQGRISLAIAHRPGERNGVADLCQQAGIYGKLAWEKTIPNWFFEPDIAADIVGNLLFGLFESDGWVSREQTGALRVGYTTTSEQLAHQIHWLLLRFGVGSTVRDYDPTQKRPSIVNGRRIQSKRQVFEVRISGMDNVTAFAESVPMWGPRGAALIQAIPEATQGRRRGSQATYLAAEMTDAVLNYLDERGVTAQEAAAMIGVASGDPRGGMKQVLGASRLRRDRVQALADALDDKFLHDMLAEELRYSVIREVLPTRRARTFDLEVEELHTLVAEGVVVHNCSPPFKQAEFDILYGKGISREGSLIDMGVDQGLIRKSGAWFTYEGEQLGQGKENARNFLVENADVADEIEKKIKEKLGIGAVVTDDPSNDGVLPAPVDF

[5] = decrease of insulin promoter-GFP reporter – imaging, high-content screening, mouse beta cells (AID 1628); type: functional; settings: MIN6
[6] = MIN6 cell viability loss – mouse insulinoma, cytotoxicity control, dose response (AID 2122); type: functional;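 further: confirmatory high-throughput counterscreen run to flag cytotoxic compounds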
[7] = viability of PTEN-deleted HCT116 cells – cell-based, HCT116 PTEN knockout, dose response (AID 1047); type: functional;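 further: HCT116 colon tumor cells with PTEN knocked out; cells exposed to compound for 60 hours before readout; potency for loss of cell viability measured by luminescence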
[8] = viability of HCT116 lacking mutant beta-catenin – cell-based, human colon tumor, dose response (AID 1045); type: functional;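 further: HCT116 colon tumor cells with beta catenin knocked out; cells exposed to compound for 60 hours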
[9] = THP-1 cell cytotoxicity, dose response, cytotoxicity control for non-replicating M. tuberculosis project (AID 489025); type: functional
[10] = target: T4, Caspase-3 (Homo sapiens, UniProt P42574); type: functional;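 further: Dose-response selectivity test against caspase-3 for candidate inhibitors of sentrin-specific proteases (SENPs)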
T4 sequence (P42574 whole entry): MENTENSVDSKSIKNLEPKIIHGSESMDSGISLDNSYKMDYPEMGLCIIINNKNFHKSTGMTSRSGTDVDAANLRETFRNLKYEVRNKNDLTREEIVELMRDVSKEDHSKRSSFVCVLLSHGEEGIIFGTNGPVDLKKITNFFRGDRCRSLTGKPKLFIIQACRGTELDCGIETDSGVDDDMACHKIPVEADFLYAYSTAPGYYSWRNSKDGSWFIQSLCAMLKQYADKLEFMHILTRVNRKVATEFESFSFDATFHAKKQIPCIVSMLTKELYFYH

[11] = Vero E6 cell cytotoxicity, dose response, cytotoxicity control for non-replicating M. tuberculosis project, secondary assay (AID 492998); type: functional, VeroE6; settings: Vero C1008
[12] = target: T5, Sentrin-specific protease 7 (Homo sapiens, UniProt Q9BQF6); type: functional;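 further: Luminescence-based dose-response confirmation of ultra-high-throughput screening hits, measuring inhibition of SENP7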
T5 sequence (Q9BQF6 whole entry): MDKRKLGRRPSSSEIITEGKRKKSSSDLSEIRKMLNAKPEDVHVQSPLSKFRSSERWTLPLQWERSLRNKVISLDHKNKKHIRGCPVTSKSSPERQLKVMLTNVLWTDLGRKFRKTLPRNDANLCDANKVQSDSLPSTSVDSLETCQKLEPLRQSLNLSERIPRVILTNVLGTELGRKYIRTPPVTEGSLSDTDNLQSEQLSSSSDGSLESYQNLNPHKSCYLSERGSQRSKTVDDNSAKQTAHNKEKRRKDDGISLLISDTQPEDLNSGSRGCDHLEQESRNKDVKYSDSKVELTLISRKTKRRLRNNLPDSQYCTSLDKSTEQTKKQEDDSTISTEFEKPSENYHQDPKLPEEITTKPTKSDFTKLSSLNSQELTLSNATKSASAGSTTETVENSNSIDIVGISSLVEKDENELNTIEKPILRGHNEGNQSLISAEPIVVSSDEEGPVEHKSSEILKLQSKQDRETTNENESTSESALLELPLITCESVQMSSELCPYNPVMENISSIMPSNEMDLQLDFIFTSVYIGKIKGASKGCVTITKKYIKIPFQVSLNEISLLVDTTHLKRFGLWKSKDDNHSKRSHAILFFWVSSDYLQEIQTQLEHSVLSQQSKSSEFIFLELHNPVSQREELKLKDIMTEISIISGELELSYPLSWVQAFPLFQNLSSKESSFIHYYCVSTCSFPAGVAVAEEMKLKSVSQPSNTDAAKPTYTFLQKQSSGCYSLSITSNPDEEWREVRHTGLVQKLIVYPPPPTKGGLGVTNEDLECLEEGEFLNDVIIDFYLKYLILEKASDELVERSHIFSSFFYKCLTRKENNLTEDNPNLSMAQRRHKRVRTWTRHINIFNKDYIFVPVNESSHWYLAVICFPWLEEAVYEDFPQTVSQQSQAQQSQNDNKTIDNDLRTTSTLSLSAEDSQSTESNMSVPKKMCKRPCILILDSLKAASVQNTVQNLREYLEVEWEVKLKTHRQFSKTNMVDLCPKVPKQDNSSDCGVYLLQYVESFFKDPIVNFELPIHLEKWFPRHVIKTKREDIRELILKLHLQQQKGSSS

[13] = target: T6, Sentrin-specific protease 6 (Homo sapiens, UniProt Q9GZR1); type: functional;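 further: Luminescence-based dose-response confirmatory assay of SENP6 inhibition, following up an ultra-high-throughput screen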
T6 sequence (Q9GZR1 whole entry): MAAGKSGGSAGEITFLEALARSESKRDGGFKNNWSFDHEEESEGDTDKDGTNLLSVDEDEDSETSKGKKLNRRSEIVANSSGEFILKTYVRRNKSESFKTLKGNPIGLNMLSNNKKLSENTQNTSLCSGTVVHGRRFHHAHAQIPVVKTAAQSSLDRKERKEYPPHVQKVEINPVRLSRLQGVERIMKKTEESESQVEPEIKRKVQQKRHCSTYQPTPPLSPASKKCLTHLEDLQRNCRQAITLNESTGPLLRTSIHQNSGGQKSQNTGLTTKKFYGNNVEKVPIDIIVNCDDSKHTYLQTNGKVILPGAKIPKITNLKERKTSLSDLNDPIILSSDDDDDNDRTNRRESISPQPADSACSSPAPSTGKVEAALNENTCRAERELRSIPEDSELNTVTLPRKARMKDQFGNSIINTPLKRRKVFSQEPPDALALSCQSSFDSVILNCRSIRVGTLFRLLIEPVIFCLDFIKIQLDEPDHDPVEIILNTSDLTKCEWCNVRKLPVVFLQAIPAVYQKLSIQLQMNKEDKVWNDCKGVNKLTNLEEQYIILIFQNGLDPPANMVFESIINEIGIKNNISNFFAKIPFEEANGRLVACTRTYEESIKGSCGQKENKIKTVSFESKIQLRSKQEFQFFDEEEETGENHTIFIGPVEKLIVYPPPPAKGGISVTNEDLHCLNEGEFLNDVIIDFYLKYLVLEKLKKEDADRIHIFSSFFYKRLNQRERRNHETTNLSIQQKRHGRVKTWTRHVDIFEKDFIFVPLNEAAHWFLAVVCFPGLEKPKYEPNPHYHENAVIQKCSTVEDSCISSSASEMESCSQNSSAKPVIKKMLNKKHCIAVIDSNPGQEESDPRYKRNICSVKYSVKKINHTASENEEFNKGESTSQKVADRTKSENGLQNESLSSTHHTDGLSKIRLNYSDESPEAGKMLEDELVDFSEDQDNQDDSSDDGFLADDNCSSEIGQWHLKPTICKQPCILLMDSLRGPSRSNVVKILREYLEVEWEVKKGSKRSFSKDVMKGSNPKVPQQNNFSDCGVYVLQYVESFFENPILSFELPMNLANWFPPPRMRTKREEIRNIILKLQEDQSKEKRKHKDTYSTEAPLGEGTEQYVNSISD

[14] = target: T7, Sentrin-specific protease 8 (Homo sapiens, UniProt Q96LD8); type: functional;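 further: luminescence read-out of SENP8 inhibition, dose-response confirmation following an ultra-high-throughput screen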
T7 sequence (Q96LD8 whole entry): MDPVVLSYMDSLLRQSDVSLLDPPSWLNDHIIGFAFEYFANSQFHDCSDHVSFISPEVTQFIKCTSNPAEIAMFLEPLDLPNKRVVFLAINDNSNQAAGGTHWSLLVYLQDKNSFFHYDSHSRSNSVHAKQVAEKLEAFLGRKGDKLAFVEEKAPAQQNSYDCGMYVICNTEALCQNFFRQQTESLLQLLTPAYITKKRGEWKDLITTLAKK

[15] = test system: INS1; assay: INS-1E survival protection against cytokine death – cell-based, luminescence, retest, dose response (AID 449756); type: functional; settings: Rattus norvegicus;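 further: cell death triggered by IL-1 beta plus TNF-alpha plus IFN-gamma mixture; protective hits raise ATP signal compared with cytokine alone wells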
[16] = target: T8, Fatty acid synthase (Homo sapiens, UniProt P49327); assay: inhibition of human FAS-TE enzyme activity – biochemical, endpoint fluorescence intensity, uHTS hits, dose response (AID 624327); type: functional;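 further: fluorescence from hydrolysis of an O-methyl fluorescein acyl ester substrate by the enzyme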
[17] = target: T8, Fatty acid synthase; assay: inhibition of human FAS-TE enzyme activity – biochemical, kinetic fluorescence intensity, dose response (AID 624326); type: functional;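 further: rate of fluorescence rise from hydrolysis of a fluorogenic O-methyl fluorescein ester substrate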

T8 sequence (P49327 whole entry): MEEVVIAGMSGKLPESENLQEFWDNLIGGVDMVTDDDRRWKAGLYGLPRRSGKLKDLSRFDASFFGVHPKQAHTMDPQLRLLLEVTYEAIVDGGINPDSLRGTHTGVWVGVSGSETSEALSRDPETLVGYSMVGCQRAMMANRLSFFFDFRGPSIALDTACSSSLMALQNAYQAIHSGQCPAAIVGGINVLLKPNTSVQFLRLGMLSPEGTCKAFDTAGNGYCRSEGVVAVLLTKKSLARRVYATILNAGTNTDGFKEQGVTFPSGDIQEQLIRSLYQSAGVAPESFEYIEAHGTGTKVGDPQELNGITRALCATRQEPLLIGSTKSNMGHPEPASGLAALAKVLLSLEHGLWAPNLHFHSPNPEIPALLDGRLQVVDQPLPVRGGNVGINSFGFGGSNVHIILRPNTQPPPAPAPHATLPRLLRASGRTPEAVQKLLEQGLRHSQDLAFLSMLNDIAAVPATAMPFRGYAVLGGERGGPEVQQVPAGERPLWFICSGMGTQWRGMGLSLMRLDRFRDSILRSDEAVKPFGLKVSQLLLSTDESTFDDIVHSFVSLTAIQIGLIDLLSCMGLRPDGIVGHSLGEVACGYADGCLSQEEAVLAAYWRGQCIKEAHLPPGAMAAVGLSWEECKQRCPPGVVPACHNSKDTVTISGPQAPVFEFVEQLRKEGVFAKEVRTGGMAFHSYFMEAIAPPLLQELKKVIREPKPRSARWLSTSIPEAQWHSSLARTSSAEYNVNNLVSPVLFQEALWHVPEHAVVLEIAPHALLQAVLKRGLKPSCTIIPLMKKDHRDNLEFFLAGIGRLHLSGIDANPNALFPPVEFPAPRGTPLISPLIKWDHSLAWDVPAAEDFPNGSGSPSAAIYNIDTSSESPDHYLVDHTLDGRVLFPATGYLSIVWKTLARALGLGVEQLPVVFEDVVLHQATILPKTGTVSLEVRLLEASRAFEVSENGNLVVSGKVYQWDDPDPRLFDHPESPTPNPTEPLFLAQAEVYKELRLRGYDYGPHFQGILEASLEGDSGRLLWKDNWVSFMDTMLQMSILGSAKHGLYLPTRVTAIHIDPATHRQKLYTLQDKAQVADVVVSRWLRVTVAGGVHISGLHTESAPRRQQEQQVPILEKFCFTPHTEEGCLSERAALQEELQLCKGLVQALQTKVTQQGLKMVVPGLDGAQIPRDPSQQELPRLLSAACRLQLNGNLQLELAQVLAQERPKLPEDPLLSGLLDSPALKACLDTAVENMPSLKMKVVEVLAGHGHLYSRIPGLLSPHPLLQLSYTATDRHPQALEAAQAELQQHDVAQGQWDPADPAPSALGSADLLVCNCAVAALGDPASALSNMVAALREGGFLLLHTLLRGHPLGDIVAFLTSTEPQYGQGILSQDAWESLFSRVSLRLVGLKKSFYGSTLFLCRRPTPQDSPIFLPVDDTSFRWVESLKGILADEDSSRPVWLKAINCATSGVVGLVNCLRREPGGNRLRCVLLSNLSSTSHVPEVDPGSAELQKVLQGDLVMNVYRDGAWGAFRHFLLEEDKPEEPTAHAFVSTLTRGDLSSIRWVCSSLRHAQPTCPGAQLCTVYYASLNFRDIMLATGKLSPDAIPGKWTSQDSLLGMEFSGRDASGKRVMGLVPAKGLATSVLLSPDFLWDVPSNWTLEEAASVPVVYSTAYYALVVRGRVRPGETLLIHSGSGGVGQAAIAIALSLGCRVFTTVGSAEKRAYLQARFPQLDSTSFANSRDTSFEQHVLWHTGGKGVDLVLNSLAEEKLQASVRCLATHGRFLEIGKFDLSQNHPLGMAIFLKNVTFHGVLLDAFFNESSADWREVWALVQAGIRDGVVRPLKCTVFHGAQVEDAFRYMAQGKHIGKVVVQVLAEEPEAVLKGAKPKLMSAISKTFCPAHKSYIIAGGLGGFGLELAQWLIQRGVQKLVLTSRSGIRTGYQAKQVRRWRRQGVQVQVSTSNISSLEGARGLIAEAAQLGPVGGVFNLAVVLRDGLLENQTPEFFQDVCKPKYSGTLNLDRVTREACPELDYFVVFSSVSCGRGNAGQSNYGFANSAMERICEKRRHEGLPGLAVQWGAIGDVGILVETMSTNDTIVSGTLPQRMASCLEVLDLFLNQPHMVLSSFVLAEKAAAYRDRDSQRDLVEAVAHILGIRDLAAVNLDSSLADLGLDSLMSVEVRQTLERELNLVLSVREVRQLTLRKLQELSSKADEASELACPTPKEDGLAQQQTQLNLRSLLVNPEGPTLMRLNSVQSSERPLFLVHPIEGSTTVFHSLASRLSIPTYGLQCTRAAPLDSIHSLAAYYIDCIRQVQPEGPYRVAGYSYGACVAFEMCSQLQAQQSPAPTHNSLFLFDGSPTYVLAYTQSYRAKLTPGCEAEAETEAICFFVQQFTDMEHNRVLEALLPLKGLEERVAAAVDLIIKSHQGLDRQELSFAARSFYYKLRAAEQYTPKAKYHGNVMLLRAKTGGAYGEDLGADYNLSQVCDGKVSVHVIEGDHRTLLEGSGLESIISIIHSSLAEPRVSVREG

SMILES: Cc1[nH]n(-c2ccccc2)c(=O)c1C(C[N+](=O)[O-])c1ccc(F)cc1 (stereo not given)
- EC50 [1]: > 260 µM (inactive)
- CC50 [2]: > 40 µM (active)
- AC50 [3]: 0.729 µM (active)
- EC50 [4]: 4.2 µM (active)

SMILES: Cc1cc(C)nc(N=C(N)Nc2ccc(OCc3ccccc3)cc2)n1
- IC50 [5]: 0.988 µM (active)
- IC50 [6]: 1.22 µM (active)

SMILES: O=[N+]([O-])c1ccc(-c2nc3cc([N+](=O)[O-])ccc3[nH]2)cc1
- EC50 [7]: 12 µM (active)
- EC50 [8]: 13.2 µM (active)
- CC50 [9]: 29.4 µM (active)
- IC50 [10]: 27.2 µM (active)
- CC50 [11]: 19.9 µM (active)
- IC50 [12]: 17 µM (active)
- IC50 [13]: 27.4 µM (active)
- IC50 [14]: 24.8 µM (active)
- AC50 [15]: 3.9 µM (active)

SMILES: CC(CCc1ccccc1)NC(=O)COC(=O)c1cc(NS(=O)(=O)c2ccc(Cl)c([N+](=O)[O-])c2)ccc1O (stereo not given)
- CC50 [2]: 32.9 µM (active)
- AC50 [3]: 3.63 µM (active)
- EC50 [4]: 2.95 µM (active)
- IC50 [16]: 11.1 µM (active)
- IC50 [17]: 6.97 µM (active)
